Assay results as given in patent US7217704B2, “LPA receptor agonists and antagonists and methods of use” (The University of Tennessee Research Foundation, priority 2003, dated 2007).
“Also recorded” adds a separate entry of the source. Where two headings read alike, the source gives them in different places.

Columns and labels:
LPA1 = target: T1, LPA1 (Homo sapiens, UniProt Q92633); test: Ca2+ transients (agonism / inhibition of LPA response) in RH7777 cells stably expressing LPA1; format: cell-based
T1 construct: expressed in transfected cells
Method: (§1) The culture medium (DMEM containing 10% FBS) was then replaced with modified Krebs solution (120 mM NaCl, 5 mM KCl, 0.62 mM MgSO4, 1.8 mM CaCl2, 10 mM HEPES, 6 mM glucose, pH 7.4) and the cells were serum starved for 6–8 hours (12 h for PC-3 cells). Cells were loaded with Fura-2 AM for 35 minutes in modified Krebs medium. The Fura-2 was removed before loading the plate in the FlexStation instrument by replacing the medium once again with 100 μl modified Krebs medium/well. Plates were incubated for 4 minutes in the instrument to allow for warming to 37° C. Changes in intracellular Ca^2+ concentration were monitored by measuring the ratio of emitted light intensity at 520 nm in response to excitation by 340 nm and 380 nm wavelength lights, respectively. Each well was monitored for 80–120 seconds. […] Time courses were recorded using the SoftMax Pro software (Molecular Devices, Sunnyvale, Calif.). Ca^2+ transients were quantified automatically by calculating the difference between maximum and baseline ratio values for each well.
(§2) Each FAP analog was tested for the ability to induce Ca^2+ transients in RH7777 cells transfected with LPA1-3 receptors (agonism), as well as the ability to inhibit LPAinduced Ca^2+ transients in the same cells (antagonism) (Table 3).

LPA3 = target: T2, LPA3 (Homo sapiens, UniProt Q9UBY5); test: Ca2+ transients (agonism / inhibition of LPA response) in RH7777 cells stably expressing LPA3; format: cell-based
T2 construct: expressed in transfected cells
T2 sequence (Q9UBY5 1-353): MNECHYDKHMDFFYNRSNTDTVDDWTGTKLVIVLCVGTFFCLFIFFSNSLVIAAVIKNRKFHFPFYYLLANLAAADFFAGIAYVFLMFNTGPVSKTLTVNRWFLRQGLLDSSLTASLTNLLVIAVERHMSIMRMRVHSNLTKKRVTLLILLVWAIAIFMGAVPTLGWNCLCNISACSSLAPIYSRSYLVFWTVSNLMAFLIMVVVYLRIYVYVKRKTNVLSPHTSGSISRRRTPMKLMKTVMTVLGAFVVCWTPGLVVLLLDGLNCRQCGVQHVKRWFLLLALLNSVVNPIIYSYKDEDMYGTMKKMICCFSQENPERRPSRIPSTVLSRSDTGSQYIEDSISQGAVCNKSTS
Method: as §1, §2

LPA2 = target: T3, LPA2 (Homo sapiens, UniProt Q9HBW0); test: Ca2+ transients (agonism / inhibition of LPA response) in RH7777 cells stably expressing LPA2; format: cell-based; conditions: for Emax: RH7777, maximal efficacy of the drug/maximal efficacy of LPA 18:1, read-out: LPA2 (Emax); for IC50: inhibition of LPA-induced Ca2+ transients, read-out: LPA2 IC50; for IC50 / EC50: RH7777 cells expressing LPA2; for EC50: induction of Ca2+ transients, read-out: LPA2 EC50
T3 construct: expressed in transfected cells
Method: as §1, §2

PC-3 cells = test: Ca2+ transients in PC-3 cells endogenously expressing LPA1-3; format: cell-based, human
Method: as §1
We tested the FAP analogs in PC-3 cells, which unlike the transfected RH7777 cells endogenously express LPA1-3 receptors.

[1] = induction of Ca2+ transients, RH7777 cells expressing LPA3, read-out: LPA3 EC50
[2] = inhibition of LPA-induced Ca2+ transients, RH7777 cells expressing LPA3, read-out: LPA3 (Ki)
[3] = inhibition of LPA-induced Ca2+ transients, RH7777 cells expressing LPA3, read-out: LPA3 IC50
[4] = induction of Ca2+ transients, RH7777 cells expressing LPA1, read-out: LPA1 EC50
[5] = Homo sapiens, inhibition of LPA-induced Ca2+ transients, PC-3 cells, read-out: PC-3 IC50
[6] = inhibition of LPA-induced Ca2+ transients, PC-3 cells
[7] = inhibition of LPA-induced Ca2+ transients, RH7777 cells expressing LPA1, read-out: LPA1 IC50
[8] = Homo sapiens, PC-3, read-out: PC-3 IC50

T1 sequence (Q92633 whole entry): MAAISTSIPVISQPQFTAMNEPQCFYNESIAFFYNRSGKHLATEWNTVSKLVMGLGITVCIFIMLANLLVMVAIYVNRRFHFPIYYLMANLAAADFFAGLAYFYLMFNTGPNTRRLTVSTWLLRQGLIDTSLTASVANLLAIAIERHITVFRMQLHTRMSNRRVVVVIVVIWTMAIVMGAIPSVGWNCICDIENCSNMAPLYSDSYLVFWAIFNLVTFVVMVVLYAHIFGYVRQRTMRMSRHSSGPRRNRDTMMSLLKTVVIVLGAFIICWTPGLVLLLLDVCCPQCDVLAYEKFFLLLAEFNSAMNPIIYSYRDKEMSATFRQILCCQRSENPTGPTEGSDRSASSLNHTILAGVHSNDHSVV
T3 sequence (Q9HBW0 whole entry): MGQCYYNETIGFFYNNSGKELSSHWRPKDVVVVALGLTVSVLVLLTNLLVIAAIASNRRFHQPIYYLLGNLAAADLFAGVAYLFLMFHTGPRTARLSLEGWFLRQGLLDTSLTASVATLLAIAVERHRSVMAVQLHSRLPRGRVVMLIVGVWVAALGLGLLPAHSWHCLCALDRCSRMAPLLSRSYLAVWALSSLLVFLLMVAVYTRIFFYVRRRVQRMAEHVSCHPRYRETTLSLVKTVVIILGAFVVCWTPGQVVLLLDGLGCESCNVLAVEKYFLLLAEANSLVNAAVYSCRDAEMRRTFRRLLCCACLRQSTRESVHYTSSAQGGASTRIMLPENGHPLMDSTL

Row | Compound | IC50 (LPA1; for 200 nM LPA, formula (VII)A enantiomer, method not stated at b93, read-out: IC50 for LPA1) [nM] | EC50 (LPA3; [1]) [nM] | Ki (LPA3; [2]) [nM] | IC50 (LPA3; [3]) [nM] | EC50 (LPA1; [4]) [nM] | Emax (LPA2) [%] | IC50 (LPA2) [nM] | IC50 (PC-3 cells; [5]) [nM] | Ki (PC-3 cells; [6]) [nM] | EC50 (LPA3) [nM] | IC50 (LPA3) [nM] | Ki (LPA3) [nM] | IC50 (LPA1; [7]) [nM] | EC50 (LPA2) [nM] | effect at LPA3 in words (LPA3; Ca2+ transients, RH7777 cells expressing LPA3) | effect at LPA1 in words (LPA1; Ca2+ transients, RH7777 cells expressing LPA1) | Emax (PC-3 cells; Homo sapiens, PC-3, maximal efficacy of the drug/maximal efficacy of LPA 18:1, read-out: PC-3 (Emax)) [%] | EC50 (LPA1) [nM] | IC50 (LPA1) [nM] | IC50 (PC-3 cells; [8]) [nM]
1 | CCCCCCCCOC[C@@H](COP(O)(O)=S)OCCCCCCCC [(S) enantiomer] | 184 |  |  |  |  |  |  |  |  |  |  |  |  |  |  |  |  |  |  | 
2 | C=CCCCCCCCCOP(=O)(O)O [Compound 5a, Phosphoric acid monodec-9-enyl ester] |  | > 30000 | 504 | 770 | > 30000 | 100 | > 30000 | 1510 | 574 |  |  |  |  |  |  |  |  |  |  | 
3 | CCCCCC=CCCCOP(=O)(O)O [Compound 5b, Phosphoric acid monodec-4-enyl ester] |  |  |  |  | > 30000 |  | > 30000 | 1300 | 735 | > 30000 | 830 | 370 | > 10000 | > 10000 |  |  |  |  |  | 
4 | CCC=CCCCCCCCCOP(=O)(O)O [Compound 5c, Phosphoric acid monododec-9-enyl ester] |  | > 30000 | 27 | 32 | > 30000 |  | > 30000 | 916 | 390 |  |  |  | > 10000 | 717 |  |  |  |  |  | 
5 | CCCCC=CCCCCCCCCOP(=O)(O)O [Compound 5d, Phosphoric acid monotetradec-9-enyl ester] |  | > 30000 | 58 | 96 |  | 58 | > 30000 | 241 | 123 |  |  |  |  | 397 |  |  |  |  |  | 
6 | CCC=CCCCCCCCCCCOP(=O)(O)O [Compound 5e, Phosphoric acid monotetradec-11-enyl ester] |  | > 30000 | 40 | 103 |  | 75 | > 30000 |  |  |  |  |  |  | 4100 |  |  |  |  |  | 
7 | CCCCCCCCC=CCCCCCCCCOP(=O)(O)O [Compound 5f, Phosphoric acid monooctadec-9-enyl ester] |  | > 30000 |  | > 30000 | > 30000 |  | > 30000 |  |  |  |  |  | > 30000 | > 30000 | did not inhibit nor did it activate Ca^2+ mobilization; also recorded: potentiated LPA response | did not inhibit nor did it activate Ca^2+ mobilization; also recorded: potentiated LPA response | 11 |  |  | 
8 | CCCCCCCCCCOP(O)(O)=S [Compound 8a, Thiophosphoric acid O-decyl ester] |  |  | 49 | 122 |  |  |  |  | 521 | > 30000 |  |  |  |  |  |  |  | > 30000 | > 30000 | 1220
9 | CCCCCCCCCCCCOP(O)(O)=S [Compound 8b, Thiophosphoric acid O-dodecyl ester] |  |  | 14 | 28 |  |  |  |  | 1300 | > 30000 |  |  |  |  |  |  |  | > 30000 | > 30000 | 2840
